Source: paper PMC6433685, “Histone deacetylase inhibitor LMK235 attenuates vascular constriction and aortic remodelling in hypertension” (Journal of Cellular and Molecular Medicine, 2019)

Experiments:
[1] = target: T1, HDAC1 (Homo sapiens, UniProt Q13547); test: HDAC1 fluorogenic enzyme assay kit (BPS Bioscience), cell-free; format: biochemical; conditions: 0.001-10 μmol/L inhibitor
T1 construct: purchased BPS Bioscience 50061

[2] = target: T2, HDAC8 (Homo sapiens, UniProt Q9BY41); test: HDAC8 fluorogenic enzyme assay kit (BPS Bioscience), cell-free; format: biochemical; conditions: 0.001-10 μmol/L inhibitor
T2 construct: purchased BPS Bioscience 50068
T2 sequence (Q9BY41 whole entry): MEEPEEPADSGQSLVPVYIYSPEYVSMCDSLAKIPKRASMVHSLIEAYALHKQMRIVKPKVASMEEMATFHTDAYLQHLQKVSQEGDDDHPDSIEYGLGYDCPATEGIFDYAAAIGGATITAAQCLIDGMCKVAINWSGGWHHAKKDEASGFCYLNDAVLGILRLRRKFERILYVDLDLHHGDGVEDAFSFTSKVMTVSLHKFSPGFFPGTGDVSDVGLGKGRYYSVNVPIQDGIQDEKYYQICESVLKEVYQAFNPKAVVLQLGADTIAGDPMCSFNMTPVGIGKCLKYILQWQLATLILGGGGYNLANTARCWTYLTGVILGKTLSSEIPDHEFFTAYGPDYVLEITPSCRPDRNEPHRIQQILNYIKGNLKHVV

[3] = tested on: cyclin D1, E2F3, p21, CaMKIIα mRNA; test: Cell cycle gene and CaMKIIα mRNA (qRT-PCR) in aortas of angiotensin II-infusion mice; format: in vivo; conditions: Ang II-infusion mice
Description: All animal procedures were approved by the Animal Experimental Committee of Chonnam National University Medical School (CNU IACUC‐H‐2014‐47) and carried out in accordance with the Guide for the Care and Use of Laboratory Animals (US National Institutes of Health Publications, 8th edition, 2011). CD‐1 mice (8 weeks old, 30‐35 g) were used in this study. Hypertension was induced by angiotensin II (Ang II, 1.3 mg/kg/day) infusion using 14‐day micro‐osmotic pumps (Alzet, model 1002; infusion rate of 0.25 μL/h) or saline alone. Ang II osmotic pumps were implanted subcutaneously after the injection of ketamine (120 mg/kg) and xylazine (6.2 mg/kg). One week after Ang II infusion, mice were administered LMK235 (1 or 3 mg/kg/day) or vehicle (dimethylsulphoxide [DMSO]) via intraperitoneal injection for 7 days. Mice were divided into three groups (n = 10‐12 per group): sham + vehicle, Ang II + vehicle, and Ang II + LMK235.
Total RNA from aortic tissue was isolated with TRIzol reagent (Invitrogen Life Technologies), and 1 μg of RNA was used for the reverse transcription reaction with TOPscript RT DryMIX (Enzynomics, South Korea). Quantification of mRNA levels was performed with the SYBR Green PCR kit (Enzynomics, South Korea).

[4] = target: T3, HDAC6 (Homo sapiens, UniProt Q9UBN7); test: HDAC6 fluorogenic enzyme assay kit (BPS Bioscience), cell-free; format: biochemical; conditions: 0.001-10 μmol/L inhibitor
T3 construct: purchased BPS Bioscience 50076
T3 sequence (Q9UBN7 whole entry): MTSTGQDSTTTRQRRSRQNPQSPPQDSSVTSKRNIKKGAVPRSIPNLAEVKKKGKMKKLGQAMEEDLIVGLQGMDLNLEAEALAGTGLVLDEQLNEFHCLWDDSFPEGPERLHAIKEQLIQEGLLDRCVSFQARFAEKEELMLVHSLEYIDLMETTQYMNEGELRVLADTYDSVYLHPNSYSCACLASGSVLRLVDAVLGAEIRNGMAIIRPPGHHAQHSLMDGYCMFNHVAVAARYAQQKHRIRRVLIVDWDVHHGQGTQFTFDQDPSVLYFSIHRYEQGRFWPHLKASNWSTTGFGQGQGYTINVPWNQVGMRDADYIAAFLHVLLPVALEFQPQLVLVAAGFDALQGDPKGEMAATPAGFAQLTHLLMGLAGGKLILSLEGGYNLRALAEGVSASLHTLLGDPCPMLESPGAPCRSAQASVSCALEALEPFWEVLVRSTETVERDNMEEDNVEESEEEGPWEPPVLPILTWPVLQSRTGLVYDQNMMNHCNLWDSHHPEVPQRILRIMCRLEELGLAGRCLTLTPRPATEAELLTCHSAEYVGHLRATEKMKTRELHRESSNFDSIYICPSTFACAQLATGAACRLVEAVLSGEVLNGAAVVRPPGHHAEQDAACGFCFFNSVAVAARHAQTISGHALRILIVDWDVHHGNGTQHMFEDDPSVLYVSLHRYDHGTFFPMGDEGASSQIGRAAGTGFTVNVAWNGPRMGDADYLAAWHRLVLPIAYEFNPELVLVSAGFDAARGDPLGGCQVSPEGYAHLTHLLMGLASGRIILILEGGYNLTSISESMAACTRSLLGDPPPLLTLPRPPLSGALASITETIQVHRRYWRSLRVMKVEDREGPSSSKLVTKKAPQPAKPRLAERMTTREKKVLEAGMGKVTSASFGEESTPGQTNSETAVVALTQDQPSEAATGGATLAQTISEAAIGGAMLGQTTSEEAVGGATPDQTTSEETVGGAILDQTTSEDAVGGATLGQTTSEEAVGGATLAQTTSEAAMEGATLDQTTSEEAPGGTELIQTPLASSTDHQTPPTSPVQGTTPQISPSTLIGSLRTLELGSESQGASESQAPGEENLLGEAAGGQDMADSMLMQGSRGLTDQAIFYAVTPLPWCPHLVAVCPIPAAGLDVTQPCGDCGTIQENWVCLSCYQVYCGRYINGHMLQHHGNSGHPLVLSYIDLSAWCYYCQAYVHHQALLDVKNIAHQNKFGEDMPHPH

T1 sequence (Q13547 whole entry): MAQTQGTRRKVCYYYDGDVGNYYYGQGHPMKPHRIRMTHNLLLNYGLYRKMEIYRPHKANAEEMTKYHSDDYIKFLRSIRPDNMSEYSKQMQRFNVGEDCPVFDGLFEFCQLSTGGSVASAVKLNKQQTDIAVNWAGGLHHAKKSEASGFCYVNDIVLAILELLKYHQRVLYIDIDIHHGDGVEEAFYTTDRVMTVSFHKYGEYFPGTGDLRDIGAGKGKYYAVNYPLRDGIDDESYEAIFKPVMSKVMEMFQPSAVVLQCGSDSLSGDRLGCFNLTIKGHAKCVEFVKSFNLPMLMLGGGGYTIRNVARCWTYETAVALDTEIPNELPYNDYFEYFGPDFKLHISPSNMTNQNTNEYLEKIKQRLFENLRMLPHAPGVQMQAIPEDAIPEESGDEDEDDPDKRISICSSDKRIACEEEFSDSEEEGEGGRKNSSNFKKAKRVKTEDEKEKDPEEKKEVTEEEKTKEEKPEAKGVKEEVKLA

For Cc1cc(C)cc(C(=O)NOCCCCCC(=O)NO)c1 [LMK235], the IC50 [1] was 30 nM, the IC50 [2] was 1120 nM and the “CaMKIIα mRNA levels in aorta” value [3] was “significantly reduced”. The “E2F3 mRNA levels in aorta” value [3] was “significantly suppressed”, the “cyclin D1 mRNA levels in aorta” value [3] was “significantly suppressed” and the “p21 transcript levels in aorta” value [3] was “restored the repressed p21 expression”. The IC50 [4] was 50 nM.
